Columns and labels:
HeLa cells [1] = experiment: Cytoprotection from ER stress (tunicamycin, WST-8 cell viability); type: cell-based; details: 6 hour exposure of tunicamycin 5 μg/mL, inhibitors 0.5-10 μM, viability 48 h or 72 h after
Excerpt: Cytoprotection against ER stress can be measured by a suitable assay. For example, cytoprotection can be measured in HeLa cells in which ER stress is elicited by the addition of media containing tunicamycin, a mixture of homologous nucleoside antibiotics that inhibits the UDP-HexNAc: polyprenol-P HexNAc-1-P family of enzymes and is used to induce unfolded protein response. Cell viability can be detected in the presence and absence of inhibitor compounds after a set period of time, by measuring the reduction of WST-8 into formazan using a standard cell viability kit (such as Cell Viability Counting Kit-8 from Dojindo). The person skilled in the art may use other class of tetrazolium compounds such as MTT, MTS, XTT. Cytoprotection from ER stress is measured in terms of the percentage increase in viable cells (relative to control) after ER stress. Alternative cell viability assays may be used such as luminogenic ATP assay. Further details of a suitable assay are set forth in the accompanying Examples section.
HeLa Cells were cultured in Eagle's Minimum Essential Medium (EMEM) supplemented with Glutamine, Sodium Pyruvate, Non-Essential Amino Acids, Penicillin and Streptomycin containing 10% Fœtal Bovine Serum (FBS), at 37° C. in 5% CO2 atmosphere. Cells were plated in 96 well plates at a density of 17,000 cells/mL the day before the treatment. ER stress was elicited by addition of 5 μg/mL tunicamycin (Sigma-Aldrich) together with the phosphatases inhibitors (0.5-10 μM). Media were changed 6 h later with fresh media and the cytoprotection was maintained by the addition of the phosphatases inhibitors (0.5-10 μM). Cell viability was assessed by measuring the reduction of WST-8 into formazan using Cell Counting Kit-8 (Sigma) according to the supplier's recommendation, 48 h or 72 h after tunicamycin treatment.

HeLa cells [2] = experiment: Assessment of translation rates in unstressed cells; type: cell-based; details: compounds 50 μM for 2.5, 5 and 9 h
Experimental: Culture medium was replaced by methionine-free DMEM medium (Invitrogen) 30 min before compounds addition. One hour before each time point, 50 μM of Click-iT® AHA (L-azidohomoalanine) (Invitrogen) was added to the culture medium in order to label newly synthesized proteins. At the end of each time point, cells were washed with ice-cold PBS and harvested by Trypsine dissociation (Lonza), then lysed in a 50 mM Tris-HCl buffer containing 1% of SDS (Sigma) and protease and phosphatase inhibitors (Sigma). Protein samples were coupled to alkyne biotin (Invitrogen) using Click-iT® Protein Reaction Buffer Kit (Invitrogen). Samples were denatured at 70° C. for 10 min, resolved on ECL 4-20% precasted gels (GE Healthcare) and transferred to nitrocellulose membranes (GE Healthcare). Alkyne biotin coupled to Click-iT® AHA incorporated to newly synthesized proteins was detected using streptavidin-HRP (Gentex). Revelation was performed by incubation of ECL Prime (GE Healthcare) and read by chemoluminiscence using Fusion Solo 3S (Vilber Lourmat).

Min6 cells = experiment: Protection against accumulation of misfold prone Insulin Akita in Min6 cells; type: cell-based; details: viability 9 days after treatment
Experimental: Min6 cells were nucleofected with Insulin^Akita a mutant constructs and seeded in 96 well-plates at 300,000 cells/mL and 24 h later, cells were treated with molecules or left untreated. As a control, cells were nucleofected with non-relevant plasmid. 6 days later, a selective agent was added (G418).
Cell viability was assessed by measuring the reduction of WST-8 into formazan using Cell Counting Kit-8 (Sigma) according to the supplier's recommendation, 9 days after treatment.

Min6 insulinoma cell = experiment: Cytoprotection from ER stress (tunicamycin) in Min6 cell line; type: cell-based; details: 6 hour exposure to tunicamycin, different concentrations
Experimental: (§1) Cells were plated in 96 well plates at a density of 0.5·10^6 cells/mL for Min6 cell line, 0.4·10^6 cells/mL for INS1 cell line the day before the treatment.
(§2) ER stress was elicited by addition of 2.5 μg/mL tunicamycin (Sigma Aldrich) together with phosphatases inhibitors.
(§3) Media were changed 6 h later with fresh media and the cytoprotection was maintained by the addition of phosphatases inhibitors.
(§4) Cell viability was assessed by measuring the reduction of WST-8 into formazan using Cell Counting Kit-8 (Sigma) according to the supplier's recommendation, 72 h after tunicamycin treatment.

INS1 insulinoma cell = experiment: Cytoprotection from ER stress (tunicamycin) in INS1 cell line; type: cell-based; details: 6 hour exposure to tunicamycin, different concentrations
Experimental: as §1, §2, §3, §4

[3] = test system: mouse embryonic fibroblasts lipofected with poly I:C; experiment: In vitro inflammation/infection model: poly I:C induced mouse embryonic fibroblasts; type: cell-based; details: 25 μM, 6 h, IFN-beta ELISA
Experimental: After 6 h of culture, eIF2alpha-phosphorylation (eIF2α-P) and PPP1R15A (GADD34) expression was monitored by western blotting, while type-I Interferon (IFN)-beta production was quantified in culture supernatants by ELISA. Control (nt) and poly I:C/DMSO are respectively negative and positive controls.
MEFs were cultured in DMEM, 10% FCS (HyClone, Perbio), 100 units/ml penicillin, 100 μg/ml streptomycin, 2 mM glutamine, 1×MEM non-essential amino acids and 50 μM 2-mercaptoethanol. MEFS were treated for the indicated time with 10 μg/ml poly I:C (InvivoGen) in combination with lipofectamine 2000 (Invitrogen).
Cells were lysed in 1% Triton X-100, 50 mM Hepes, 10 mM NaCl, 2.5 mM MgCl2, 2 mM EDTA, 10% glycerol, supplemented with Complete Mini Protease Inhibitor Cocktail Tablets (Roche). Protein quantification was performed using the BCA Protein Assay (Pierce). […] Rabbit polyclonal antibodies recognizing GADD34 (C-19) were from Santa Cruz Biotechnology and anti-eIF2alpha[pS^52] were from Invitrogen.
IFN-beta quantification in culture supernatant was performed using the Mouse Interferon Beta ELISA kit (PBL Interferon Source) according to manufacturer instructions.

human alpha2A receptor = biological target: T1, human alpha2A receptor (Homo sapiens, UniProt P08913); experiment: Functional GPCR assay for adrenergic α2A receptor (CellKey detection method); type: cell-based; details: agonist activity, CHO cells, impedance; EC50>33.3 μM considered no significant alpha-2 adrenergic activity; read-out: Functional adrenergic alpha2 receptor assay EC50
T1 construct: CHO cells endogenously expressing human alpha2A receptor; endogenous in cells; host or cells: CHO cells
T1 sequence (P08913 1-465): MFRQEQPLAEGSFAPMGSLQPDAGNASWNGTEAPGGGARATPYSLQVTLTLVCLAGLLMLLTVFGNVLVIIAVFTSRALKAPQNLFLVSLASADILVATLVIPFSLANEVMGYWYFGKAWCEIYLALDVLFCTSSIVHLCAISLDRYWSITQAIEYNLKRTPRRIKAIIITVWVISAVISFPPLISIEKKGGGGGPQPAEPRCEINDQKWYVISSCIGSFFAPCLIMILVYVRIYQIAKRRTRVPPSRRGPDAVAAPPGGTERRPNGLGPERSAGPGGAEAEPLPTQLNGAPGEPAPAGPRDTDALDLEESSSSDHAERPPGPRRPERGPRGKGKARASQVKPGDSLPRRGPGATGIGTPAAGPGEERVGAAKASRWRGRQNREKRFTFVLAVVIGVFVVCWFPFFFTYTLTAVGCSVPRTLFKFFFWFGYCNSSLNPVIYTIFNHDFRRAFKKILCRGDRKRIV

HeLa cells [4] = details: tunicamycin, Tsaytler et al., Science 2011, cited from earlier work; for protection of cells from cytotoxic ER stress: HeLa cells

| Compound | Cytoprotection from ER stress compared to guanabenz (HeLa cells [1]) | Translation inhibition in non-stressed cells (HeLa cells [2]) | also measured |
| --- | --- | --- | --- |
| N=C(N)N/N=C/c1ccccc1Br [Compound 3, 2-(2-bromobenzylidene) hydrazinecarboximidamide] | ++ | no effect |  |
| COc1ccccc1/C=N/NC(=N)N [Compound 4, 2-(2-methoxybenzylidene) hydrazinecarboximidamide] | + |  |  |
| N=C(N)N/N=C/c1ccncc1Cl [Compound 6, 2-[(3-chloropyridin-4-yl)methylidene]hydrazinecarboximidamide] | + | no effect | cell death associated with accumulation of misfold prone Insulin Akita (FIG. 8) (Min6 cells): prevent cell death; Min6 insulinoma cell death induced by tunicamycin (FIG. 9) (Min6 insulinoma cell): prevent Min6 insulinoma cell death; INS1 insulinoma cell death induced by tunicamycin (FIG. 10) (INS1 insulinoma cell): prevent INS1 insulinoma cell death; type-I IFN production (FIG. 13) [3]: prevent type-I IFN production |
| CC(=O)O.N=C(N)N/N=C/c1ccncc1Cl [Compound 7, 2-[(3-chloropyridin-4-yl)methylidene]hydrazinecarboximidamide acetate] | ++ | no effect | EC50 (human alpha2A receptor): > 33300 nM |
| CC(=O)O.N=C(N)N/N=C/c1c(F)cccc1Cl [Compound 8, 2-(2-chloro-6-fluorobenzylidene)hydrazinecarboximidamide acetate] | ++ | no effect | type-I IFN production (FIG. 13) [3]: prevent type-I IFN production |
| Cc1ccc(/C=N/NC(=N)N)c(Cl)c1 [Compound 9, 2-(2-chloro-4-methylbenzylidene)hydrazinecarboximidamide] | − |  |  |
| Cc1ccc(Cl)c(/C=N/NC(=N)N)c1 [Compound 10, 2-(2-chloro-5-methylbenzylidene)hydrazinecarboximidamide] | + |  |  |
| Cc1cccc(/C=N/NC(=N)N)c1Cl [Compound 11, 2-(2-chloro-3-methylbenzylidene)hydrazinecarboximidamide] | + |  |  |
| Clc1cccc(Cl)c1N=C1NCCN1 [clonidine] |  |  | protection of cells from cytotoxic ER stress (HeLa cells [4]): Neither the α2-adrenergic receptor agonist clonidine, nor the α2-adrenergic receptor antagonist efaroxan protected cells |
| CCC1(C2=NCCN2)Cc2ccccc2O1 (stereo not shown) [efaroxan] |  |  | protection of cells from cytotoxic ER stress (HeLa cells [4]): Neither the α2-adrenergic receptor agonist clonidine, nor the α2-adrenergic receptor antagonist efaroxan protected cells |
| NC(N)=N/N=C/c1c(Cl)cccc1Cl [guanabenz, 2-(2,6-dichlorobenzylidene)hydrazinecarboximidamide] |  |  | protection of cells from cytotoxic ER stress (HeLa cells [4]): doubled the number of cells surviving ER stress; EC50 (HeLa cells [4]; read-out: median effective concentration, survival of HeLa cells exposed to ER stress): ~400 nM |

Source: patent US10709677B2, “Therapeutic uses of benzylideneguanidine derivatives for the treatment of proteopathies” (InFlectis BioScience, priority 2014, dated 2020)
